Measured values taken from patent US4585757A, “Hypotensive active peptides” (Texas Tech University Health Sciences Center, priority 1984, dated 1986).
Read-outs that look alike come from different tables or passages of the source. Peptide text beside a SMILES is read from it.

Tests used:
Mongrel dogs = experiment: dog blood pressure assay; type: in vivo; details: dose 3 × 10^-9 moles/kg, mean of 4 replications
Method: The dog blood pressure assay was conducted according to the following method:
Mongrel dogs of either sex weighing between 6-15 kg were anesthetized by intravenous injection of sodium pentobarbital (30 mg/kg). The femoral artery and vein were cannulated for the measurement of blood pressure and the injection of drugs, respectively. Arterial blood pressure was determined with a Statham pressure transducer and was recorded on a Grass polygraph. Mean arterial pressure (MAP) were calculated for the periods before and after each peptide injection. A tracheotomy was performed to insure a patient airway for spontaneous respiration.
Hypotensive screening studies involved injecting each dog with 0.1; 0.5; 1.0; and 2.0 ug/kg. The CIP as supplied by Peninsula Laboratories was in the lyophilyzed form. Prior to injection the CIP was dissolved in saline.

[1] = tested on: rat tail artery helical strip; design: dose or concentration left out as unconfirmed; details: strips contracted with arginine vasopressin
Method: Male and female Sprague-Dawley rats were anesthetized with pentobarbital (50 mg/kg) before removal of the tail artery. Upon isolation the artery was placed in ice cold Krebs-Hensleit solution (KHS) which was oxygenated with 95% O2, 5% CO2. The vessels were cut helically and strips of approximately 1.5 cm were secured in a Sawyer-Bartleston chamber containing KHS. The development of force of the helical strips was measured with a Grass FT.03 force displacement transducer and recorded on a Grass Model 79D polygraph. Isolated tail artery helical strips were equilibrated for one hour prior to addition of any peptide. In all cases, the strips were first contracted by adding arginine vasopressin (AVP), to the bath. The peptide being studied was then added to the bath and the degree of relaxation was determined.

Sprague-Dawley rats = experiment: rat blood pressure assay; type: in vivo; details: anesthetized rat, mean of 4 replications
Method: The rat blood pressure assay was conducted as follows: Sprague-Dawley rats of both sexes, weighing between 100 and 200 grams, were anesthetized with sodium pentobarbital and the right carotid artery and jugular vein were cannulated with polyethylene tubing PE50. The hypotensive peptide was administered and blood pressure was recorded in the anesthetized rats as described above for dogs.

Compound | Tension change ([1]; dose of 100) | Tension change ([1]; dose of 200) | Tension change ([1]; dose of 500) | other results
NC(N)=NCCC[C@H](NC(=O)[C@H](Cc1ccccc1)NC(=O)[C@@H]1CCCN1C(=O)[C@H](CO)NC(=O)[C@H](Cc1ccccc1)NC(=O)CNC(=O)[C@@H]1CCCN1C(=O)[C@@H]1CCCN1C(=O)[C@@H](N)CCCN=C(N)N)C(=O)O [Bradykinin] (H-RPPGFSPFR-OH) | – | – | – | Maximum Decrease in Blood Pressure (Mongrel dogs): 44 mmHg
N=C(N)NCCC[C@H](N)C(=O)O [L Arg, L-arginine] | 0 gm | 0 gm | 0 gm | –
O=C(O)[C@@H]1CCCN1 [L Pro, L-proline] | 0 gm | 0 gm | 0 gm | –
Thy-Pro-Arg-Lys [Contraceptive tetrapeptide] | – | – | – | Blood Pressure Decrease (Sprague-Dawley rats; dose 100.0 ug/kg): 2 mmHg; Blood Pressure Decrease (Sprague-Dawley rats; dose 200.0 ug/kg): 3 mmHg; Blood Pressure Decrease (Sprague-Dawley rats; dose 500.0 ug/kg): 9 mmHg; Blood Pressure Decrease (Sprague-Dawley rats; dose 1000.0 ug/kg): 13 mmHg; Blood Pressure Decrease (Sprague-Dawley rats; dose 2000.0 ug/kg): 15 mmHg
